Reference: US20190060337A1, “COMPOSITIONS COMPRISING BETA-GLUCOGALLIN AND THERAPEUTIC APPLICATIONS THEREOF IN CONTROLLED KINETICS OF CARBOHYDRATE BREAKDOWN AND MONOSACCHARIDE ABSORPTION” (priority 2017, published 2019)

Experiment: Toxicity (LD50)
Details: in vivo

Structure (SMILES): O=C(O[C@@H]1O[C@H](CO)[C@@H](O)[C@H](O)[C@H]1O)c1cc(O)c(O)c(O)c1 [β-glucogallin, 1-O-galloyl-β-D-glucose]
- LD50: approx. 2000 mg/kg bodyweight
